Laboratory results taken from US7495027B2, “3-aryl-4-hydroxyfuranone compounds and the human and animal health use thereof” (Wyeth, priority 2003, dated 2009).
≈ marks a conversion by molar mass, not a printed value. Where two headings read alike, the source gives them in different places.

Columns and labels:
[1] = biological target: E. coli Uridine-diphosphate-N-acetylmuramoyl-L-alanine: D-glutamate liease, MurD (Escherichia coli, UniProt P14900); test: biochemical; conditions: (E) E. coli enzyme
E. coli Uridine-diphosphate-N-acetylmuramoyl-L-alanine: D-glutamate liease, MurD, sequence (P14900 whole entry): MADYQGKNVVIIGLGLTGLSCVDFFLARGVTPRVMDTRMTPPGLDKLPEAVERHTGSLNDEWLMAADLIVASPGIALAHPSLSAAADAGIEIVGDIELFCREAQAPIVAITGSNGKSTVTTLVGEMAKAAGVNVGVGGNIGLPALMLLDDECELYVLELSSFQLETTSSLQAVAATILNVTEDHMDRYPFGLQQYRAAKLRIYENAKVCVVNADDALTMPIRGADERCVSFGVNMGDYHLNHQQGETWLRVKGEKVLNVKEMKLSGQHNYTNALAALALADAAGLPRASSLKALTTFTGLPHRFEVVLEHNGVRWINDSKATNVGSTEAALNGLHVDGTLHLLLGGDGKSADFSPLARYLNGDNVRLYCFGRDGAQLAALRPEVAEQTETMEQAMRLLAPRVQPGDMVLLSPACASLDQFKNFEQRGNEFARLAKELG
How it was run: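 Compound working solutions reach 100 μg/mL in 50 mM Tris/HCl (pH 8.5) after dilution of 10 mg/mL DMSO stocks; final level in the well not given here. Reaction buffer finals: 2 mM ATP, 50 mM MgCl2, 83 mM Tris/HCl, pH 8.0.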

Streptococci = test: Minimum inhibitory concentration, microdilution broth method, streptococci; type: cell-based; conditions: Mueller-Hinton broth with 5% horse blood, 18-22 hours at 35° C.; for MIC: S. pneumo GC 1894
How it was run: (§1)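 Broth microdilution per NCCLS M7-A5 (2000). Staphylococci and enterococci grown in Mueller-Hinton broth; streptococci in Mueller-Hinton broth with 5% horse blood (LHB). Panel includes recent clinical isolates resistant to methicillin, penicillin and/or vancomycin.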

enterococci = test: Minimum inhibitory concentration, microdilution broth method, enterococci; type: cell-based; conditions: Mueller-Hinton broth, 18-22 hours at 35° C.; for MIC: Enterococcus faecalis
How it was run: as §1

[2] = biological target: E. coli Uridine-diphosphate-N-acetvimuramoyl: L-alanine lipase, MurC (Escherichia coli, UniProt P17952); test: Inhibitory activity against MurC (E. coli); type: biochemical
E. coli Uridine-diphosphate-N-acetvimuramoyl: L-alanine lipase, MurC, sequence (P17952 whole entry): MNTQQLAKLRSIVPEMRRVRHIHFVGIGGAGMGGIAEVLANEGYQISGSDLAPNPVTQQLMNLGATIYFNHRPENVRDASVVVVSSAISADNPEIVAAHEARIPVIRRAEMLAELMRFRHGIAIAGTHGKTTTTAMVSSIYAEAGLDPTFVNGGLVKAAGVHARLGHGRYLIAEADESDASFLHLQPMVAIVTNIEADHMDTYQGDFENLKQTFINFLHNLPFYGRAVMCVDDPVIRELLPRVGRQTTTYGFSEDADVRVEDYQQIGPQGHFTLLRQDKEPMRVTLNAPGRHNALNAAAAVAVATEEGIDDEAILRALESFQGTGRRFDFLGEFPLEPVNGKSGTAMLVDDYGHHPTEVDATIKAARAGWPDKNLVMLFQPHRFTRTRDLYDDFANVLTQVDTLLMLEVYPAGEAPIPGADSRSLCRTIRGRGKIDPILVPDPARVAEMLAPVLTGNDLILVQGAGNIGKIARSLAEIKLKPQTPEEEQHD

[3] = biological target: T1, S. aureus Enopyruvyl-UPD-N-acetylglucosamine reductase, Mur B (Staphylococcus aureus, UniProt P61431); test: biochemical
T1 sequence (P61431 1-307): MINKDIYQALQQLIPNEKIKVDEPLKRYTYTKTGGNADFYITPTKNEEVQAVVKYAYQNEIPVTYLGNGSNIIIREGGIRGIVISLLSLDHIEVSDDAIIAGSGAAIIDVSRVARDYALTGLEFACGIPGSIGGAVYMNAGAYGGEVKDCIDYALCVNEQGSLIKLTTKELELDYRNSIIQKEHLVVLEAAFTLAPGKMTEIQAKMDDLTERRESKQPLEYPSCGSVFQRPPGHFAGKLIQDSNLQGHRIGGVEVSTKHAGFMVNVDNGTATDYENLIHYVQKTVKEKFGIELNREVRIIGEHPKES

[4] = E. faecalis GC 2242, read-out: MIC E. faecalis GC 2242
[5] = E. faecalis GC 4555, read-out: MIC E. faecalis GC 4555
[6] = (S) S. aureus enzyme, read-out: MurB IC50 (converted)
[7] = (E) E. coli enzyme, read-out: MurC IC50 (converted)

Row | Compound | MurD IC50 [1] | MIC (Streptococci) | MIC (enterococci; [4]) | MIC (enterococci; [5]) | MurC IC50 ([2]; (E) E. coli enzyme) | IC50 [3, 6] | IC50 [1] | IC50 [2, 7] | MIC S. pneumo GC 1894 (Streptococci) | MIC E. faecalis GC 2242 (enterococci; E. faecalis GC 2242) | MIC E. faecalis GC 4555 (enterococci; E. faecalis GC 4555) | MurB IC50 ([3]; (S) S. aureus enzyme) | IC50 ([2]; MurC IC50, (E) E. coli enzyme) | IC50 [3]
1 | O=C1O/C(=C\c2cccc(-c3cccc(Cl)c3)c2)C(O)=C1c1cccc(Cl)c1 [Example 134] | 6 µg/mL | 1 µg/mL (≈ 2.44 µM) | 4 µg/mL (≈ 9.77 µM) | 8 µg/mL (≈ 19.5 µM) | 5 µg/mL | 4.89 µM |  |  |  |  |  |  |  | 
2 | COc1ccccc1-c1ccc(/C=C2\OC(=O)C(c3cc(Cl)cc(Cl)c3)=C2O)cc1OC [Example 19] |  | 0.5 µg/mL (≈ 1.07 µM) | 8 µg/mL (≈ 17 µM) | 8 µg/mL (≈ 17 µM) |  | 21.3 µM | > 53.3 µM | 12.8 µM |  |  |  |  |  | 
3 | COC(=O)c1ccc(C2=C(O)/C(=C/c3cccc4ccccc34)OC2=O)cc1 [Example 74] |  | 32 µg/mL (≈ 85.9 µM) | > 128 µg/mL | > 128 µg/mL |  | 26.9 µM | > 67.1 µM | 51 µM |  |  |  |  |  | 
4 | O=C1O/C(=C\c2cccc3ccccc23)C(O)=C1c1cccc(C=NO)c1 [Example 77] |  |  |  |  | 9 µg/mL |  |  |  | 64 µg/mL (≈ 179 µM) | >128 µg/mL | >128 µg/mL | 10 µg/mL |  | 
5 | O=C1O/C(=C\c2ccc(Cl)cc2)C(O)=C1c1ccc2ccccc2c1 [Example 43] |  | 1 µg/mL (≈ 2.87 µM) | 4 µg/mL (≈ 11.5 µM) | 16 µg/mL (≈ 45.9 µM) |  | 14.3 µM | > 71.7 µM | 11.5 µM |  |  |  |  |  | 
6 | O=Cc1cccc(C2=C(O)/C(=C/c3cccc4ccccc34)OC2=O)c1 [Example 76] |  | 64 µg/mL (≈ 187 µM) | > 128 µg/mL | > 128 µg/mL |  | 14.6 µM | 67.2 µM | 14.6 µM |  |  |  |  |  | 
7 | O=C1OC(=Cc2cccc3ccccc23)C(O)=C1c1ccc(C=NO)cc1 (mixture of isomers) [Example 73] |  |  |  |  | 19 µg/mL |  |  |  | 64 µg/mL | >128 µg/mL | >128 µg/mL | 12 µg/mL |  | 
8 | COc1cccc(C2=C(O)/C(=C/c3cccc4ccccc34)OC2=O)c1 [Example 72] |  | 32 µg/mL (≈ 92.9 µM) | > 128 µg/mL | > 128 µg/mL |  | 58.1 µM | > 72.6 µM | > 72.6 µM |  |  |  |  |  | 
9 | O=C1O/C(=C\c2cccc(-c3cc(Cl)cc(Cl)c3)c2)C(O)=C1c1cc(Cl)cc(Cl)c1 [Example 136] |  | 0.25 µg/mL (≈ 0.523 µM) | 0.5 µg/mL (≈ 1.05 µM) | 1 µg/mL (≈ 2.09 µM) | 11 µg/mL | 4.18 µM | 12.5 µM |  |  |  |  |  |  | 
10 | COc1ccccc1-c1ccc(/C=C2\OC(=O)C(c3ccc(Cl)c(Cl)c3)=C2O)cc1OC [Example 20] |  | 0.5 µg/mL (≈ 1.07 µM) | 16 µg/mL (≈ 34.1 µM) | 16 µg/mL (≈ 34.1 µM) |  | 6.39 µM | > 53.3 µM | 23.4 µM |  |  |  |  |  | 
11 | O=C1O/C(=C\c2cccc3ccccc23)C(O)=C1c1ccc(C(F)(F)F)cc1 [Example 71] |  | 0.5 µg/mL (≈ 1.31 µM) | 4 µg/mL (≈ 10.5 µM) | 8 µg/mL (≈ 20.9 µM) |  | 26.2 µM | > 65.4 µM | 28.8 µM |  |  |  |  |  | 
12 | O=C1O/C(=C\c2cccc3ccccc23)C(O)=C1c1cccc2ccccc12 [Example 47] |  | 16 µg/mL (≈ 43.9 µM) | 32 µg/mL (≈ 87.8 µM) | 64 µg/mL (≈ 176 µM) |  | 27.4 µM | > 68.6 µM | 30.2 µM |  |  |  |  |  | 
13 | O=C1O/C(=C\c2cccc3ccccc23)C(O)=C1c1cc(Cl)cc(Cl)c1 [Example 70] |  | 0.5 µg/mL (≈ 1.3 µM) | 2 µg/mL (≈ 5.22 µM) | 2 µg/mL (≈ 5.22 µM) |  | 13 µM | 44.4 µM | 13 µM |  |  |  |  |  | 
14 | Cc1cc(/C=C2\OC(=O)C(c3cc(Cl)cc(Cl)c3)=C2O)ccc1-c1ccccc1C(F)(F)F [Example 27] |  | 0.5 µg/mL (≈ 1.02 µM) | 1 µg/mL (≈ 2.04 µM) | 2 µg/mL (≈ 4.07 µM) |  | 4.07 µM |  |  |  |  |  |  |  | 
15 | O=C1O/C(=C\c2ccc(-c3ccccc3)cc2)C(O)=C1c1cccs1 [Example 144] |  | 2 µg/mL (≈ 5.77 µM) | 32 µg/mL (≈ 92.4 µM) | > 128 µg/mL |  | 28.9 µM |  |  |  |  |  |  |  | 
16 | O=C1O/C(=C\c2ccccc2-c2cccc(Cl)c2)C(O)=C1c1cccc(Cl)c1 [Example 140] |  | 1 µg/mL (≈ 2.44 µM) | 4 µg/mL (≈ 9.77 µM) | 4 µg/mL (≈ 9.77 µM) |  | 7.33 µM |  |  |  |  |  |  |  | 

Row | Compound | MurD IC50 [1] | MIC (Streptococci) | MIC (enterococci; [4]) | MIC (enterococci; [5]) | MurC IC50 ([2]; (E) E. coli enzyme) | IC50 [3, 6] | IC50 [1] | IC50 [2, 7] | MIC S. pneumo GC 1894 (Streptococci) | MIC E. faecalis GC 2242 (enterococci; E. faecalis GC 2242) | MIC E. faecalis GC 4555 (enterococci; E. faecalis GC 4555) | MurB IC50 ([3]; (S) S. aureus enzyme) | IC50 ([2]; MurC IC50, (E) E. coli enzyme) | IC50 [3]
17 | CN(C)c1ccc(/C=C2\OC(=O)C(c3ccc(Cl)cc3)=C2O)c2ccccc12 [Example 78] |  | 2 µg/mL (≈ 5.1 µM) | 64 µg/mL (≈ 163 µM) | 64 µg/mL (≈ 163 µM) |  | 33.2 µM |  |  |  |  |  |  |  | 
18 | Cc1ccccc1-c1ccc(/C=C2\OC(=O)C(c3cc(Cl)cc(Cl)c3)=C2O)cc1C [Example 29] |  | < 0.125 µg/mL | 0.5 µg/mL (≈ 1.14 µM) | 2 µg/mL (≈ 4.57 µM) |  | 4.57 µM |  |  |  |  |  |  |  | 
19 | COc1cc(/C=C2\OC(=O)C(c3cccc(Cl)c3)=C2O)ccc1-c1ccccc1C [Example 22] |  | 1 µg/mL (≈ 2.39 µM) | 8 µg/mL (≈ 19.1 µM) | 16 µg/mL (≈ 38.2 µM) |  | 14.3 µM |  |  |  |  |  |  |  | 
20 | O=C1O/C(=C\c2ccccc2-c2ccc(Cl)cc2)C(O)=C1c1ccc(Cl)cc1 [Example 137] |  | 2 µg/mL (≈ 4.89 µM) | 4 µg/mL (≈ 9.77 µM) | 4 µg/mL (≈ 9.77 µM) |  | 7.33 µM |  | 41.5 µM |  |  |  |  |  | 
21 | COc1cc(/C=C2\OC(=O)C(c3cc(Cl)cc(Cl)c3)=C2O)ccc1-c1ccccc1C [Example 25] |  | 0.25 µg/mL (≈ 0.551 µM) | 2 µg/mL (≈ 4.41 µM) | 4 µg/mL (≈ 8.82 µM) |  | 4.41 µM |  |  |  |  |  |  |  | 
22 | CN(C)c1ccc(C=C2OC(=O)C(c3cc(Cl)cc(Cl)c3)=C2O)c2ccccc12 [Example 80] |  |  |  |  |  |  |  |  | 1 µg/mL (≈ 2.35 µM) | 4 µg/mL (≈ 9.38 µM) | 8 µg/mL (≈ 18.8 µM) | 1 µg/mL |  | 
23 | O=C1O/C(=C\c2cccc3ccccc23)C(O)=C1c1ccc(-c2ccccc2)cc1 [R=H, R1=4-biphenyl, R2=1-naphthyl] |  | 1 µg/mL (≈ 2.56 µM) | 4 µg/mL (≈ 10.2 µM) | 16 µg/mL (≈ 41 µM) |  |  | > 64 µM |  |  |  |  |  | 15.4 µM | 25.6 µM
24 | CCOC(=O)c1cccc(C2=C(O)C(=Cc3cccc4ccccc34)OC2=O)c1 [Example 75] |  |  |  |  | 18 µg/mL |  |  |  | 32 µg/mL (≈ 82.8 µM) | >128 µg/mL | 64 µg/mL (≈ 166 µM) | 24 µg/mL |  | 
25 | O=C1O/C(=C\c2ccc(Cl)cc2)C(O)=C1c1ccc(-c2ccccc2)c(F)c1 [Example 138] |  | 0.5 µg/mL (≈ 1.27 µM) | 4 µg/mL (≈ 10.2 µM) | 8 µg/mL (≈ 20.4 µM) |  | 7.64 µM |  | 12.7 µM |  |  |  |  |  | 
26 | COc1cc(/C=C2\OC(=O)C(c3cccc(Cl)c3)=C2O)ccc1-c1ccccc1C(F)(F)F [Example 32] |  | 0.5 µg/mL (≈ 1.06 µM) | 4 µg/mL (≈ 8.46 µM) | 8 µg/mL (≈ 16.9 µM) |  | 6.34 µM |  |  |  |  |  |  |  | 
27 | O=C1O/C(=C\c2cc(C(F)(F)F)ccc2Cl)C(O)=C1c1ccc(N2CCOCC2)c(F)c1 [Example 142] |  |  |  |  |  |  |  |  | 8 µg/mL (≈ 17 µM) | >128 µg/mL | >128 µg/mL | 21 µg/mL |  | 
28 | O=C1O/C(=C\c2ccc(-c3ccccc3)cc2)C(O)=C1c1csc2ccccc12 [Example 143] |  | 1 µg/mL (≈ 2.52 µM) | 4 µg/mL (≈ 10.1 µM) | 32 µg/mL (≈ 80.7 µM) |  | 10.1 µM |  |  |  |  |  |  |  | 
29 | CN(C)c1ccc(/C=C2\OC(=O)C(c3cc(Cl)cc(Cl)c3)=C2O)c2ccccc12 [Example 79] |  | 0.5 µg/mL (≈ 1.17 µM) | 4 µg/mL (≈ 9.38 µM) | 8 µg/mL (≈ 18.8 µM) |  | 2.35 µM |  |  |  |  |  |  |  | 
30 | O=C1O/C(=C\c2ccc(N3CCOCC3)c3ccccc23)C(O)=C1c1cccc(Cl)c1 [Example 37] |  | 8 µg/mL (≈ 18.4 µM) | 16 µg/mL (≈ 36.9 µM) | 32 µg/mL (≈ 73.8 µM) |  | 23 µM |  |  |  |  |  |  |  | 
31 | COc1cc(/C=C2\OC(=O)C(c3cc(Cl)cc(Cl)c3)=C2O)ccc1-c1ccccc1Cl [Example 21] |  | 0.5 µg/mL (≈ 1.06 µM) | 2 µg/mL (≈ 4.22 µM) | 4 µg/mL (≈ 8.44 µM) |  | 6.33 µM |  |  |  |  |  |  |  | 
